Data taken from patent US10323043B2, “Derivatives of macrocyclic N-aryl-tricyclopyrimidine-2-amine polyethers as inhibitors of FTL3 and JAK” (PIERRE FABRE MEDICAMENT, priority 2014, dated 2019).
pEC50, pIC50: −log10 of the molar value.

Columns and labels:
FLT3 = target: T1, FLT3 (Homo sapiens, UniProt P36888); experiment: LanthaScreen TR-FRET binding test, FLT3; conditions: recombinant FLT3 15 nM, kinase tracer 236 3 nM, 25° C., 1 hour; read-out: Inhibition (IC50) of FLT3 enzyme
T1 construct: purchased Life Technologies PV3182
T1 sequence (P36888 564-993 limits assumed): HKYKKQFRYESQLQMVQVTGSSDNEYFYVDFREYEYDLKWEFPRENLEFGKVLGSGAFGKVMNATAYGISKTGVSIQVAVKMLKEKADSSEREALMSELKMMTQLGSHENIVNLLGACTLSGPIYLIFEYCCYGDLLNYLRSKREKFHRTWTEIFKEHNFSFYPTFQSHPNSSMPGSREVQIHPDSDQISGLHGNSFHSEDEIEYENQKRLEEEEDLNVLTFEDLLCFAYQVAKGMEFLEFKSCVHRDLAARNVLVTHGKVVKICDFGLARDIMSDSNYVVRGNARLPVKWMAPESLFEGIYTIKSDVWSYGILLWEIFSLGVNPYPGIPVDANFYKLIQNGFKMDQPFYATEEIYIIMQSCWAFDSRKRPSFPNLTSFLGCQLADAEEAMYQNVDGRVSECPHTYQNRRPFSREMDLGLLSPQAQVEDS
Description: (§1) FLT3 (#PV3182), JAK2 (#PV4210) and JAK3 (#PV3855) recombinant enzymes were purchased from Life Technologies. FLT3-ITD (#0778-0000-1) and FLT3^D835Y (#14-610) proteins were purchased from ProQinase and Merck Millipore, respectively. All the tests were carried out in 384-well plates. The principle of these binding tests is based on the LanthaScreen® TR-FRET methodology from Life Technologies.
(§2) The reaction mixture (15 μL total volume) contains the following compounds: 15 nM FLT3, FLT3-ITD or FLT3^D835Y, 3 nM kinase tracer 236 (Life Technologies, #PV5592) and 6 nM LanthaScreen® anti-GST antibody coupled to a europium chelate (Life Technologies, #PV5594) for FLT3-ITD and FLT3^D835Y or 6 nM LanthaScreen® anti-His antibody coupled to a europium chelate (Life Technologies, #PV5596) for FLT3.
(§3) The compounds are evaluated at 8 different concentrations prepared by making dilutions from a starting 10 mM stock solution in dimethylsulfoxide (DMSO) (Sigma, #D8418). The final DMSO concentration in the test is 1%. The reaction is carried out at 25° C. for 1 hour and detected on the EnVision® reader (Perkin Elmer) according to the recommendations of the supplier, Life Technologies.
(§4) The results are presented (Table 1) as the concentration values of the compound at which 50% of the kinase activity is inhibited, IC50 (μM), generated using the PRISM software (GraphPad).

FLT3-ITD = target: T2, FLT3-ITD (Homo sapiens, UniProt P36888); experiment: LanthaScreen TR-FRET binding test, FLT3-ITD; conditions: FLT3-ITD 15 nM, kinase tracer 236 3 nM, 25° C., 1 hour; read-out: Inhibition (IC50) of FLT3-ITD enzyme
T2 construct: FLT3-ITD (#0778-0000-1) and FLT3^D835Y (#14-610) proteins were purchased from ProQinase and Merck Millipore, respectively; fused on or other part: GST tag, inferred from detection with the anti-GST europium antibody
T2 sequence (P36888 1-993): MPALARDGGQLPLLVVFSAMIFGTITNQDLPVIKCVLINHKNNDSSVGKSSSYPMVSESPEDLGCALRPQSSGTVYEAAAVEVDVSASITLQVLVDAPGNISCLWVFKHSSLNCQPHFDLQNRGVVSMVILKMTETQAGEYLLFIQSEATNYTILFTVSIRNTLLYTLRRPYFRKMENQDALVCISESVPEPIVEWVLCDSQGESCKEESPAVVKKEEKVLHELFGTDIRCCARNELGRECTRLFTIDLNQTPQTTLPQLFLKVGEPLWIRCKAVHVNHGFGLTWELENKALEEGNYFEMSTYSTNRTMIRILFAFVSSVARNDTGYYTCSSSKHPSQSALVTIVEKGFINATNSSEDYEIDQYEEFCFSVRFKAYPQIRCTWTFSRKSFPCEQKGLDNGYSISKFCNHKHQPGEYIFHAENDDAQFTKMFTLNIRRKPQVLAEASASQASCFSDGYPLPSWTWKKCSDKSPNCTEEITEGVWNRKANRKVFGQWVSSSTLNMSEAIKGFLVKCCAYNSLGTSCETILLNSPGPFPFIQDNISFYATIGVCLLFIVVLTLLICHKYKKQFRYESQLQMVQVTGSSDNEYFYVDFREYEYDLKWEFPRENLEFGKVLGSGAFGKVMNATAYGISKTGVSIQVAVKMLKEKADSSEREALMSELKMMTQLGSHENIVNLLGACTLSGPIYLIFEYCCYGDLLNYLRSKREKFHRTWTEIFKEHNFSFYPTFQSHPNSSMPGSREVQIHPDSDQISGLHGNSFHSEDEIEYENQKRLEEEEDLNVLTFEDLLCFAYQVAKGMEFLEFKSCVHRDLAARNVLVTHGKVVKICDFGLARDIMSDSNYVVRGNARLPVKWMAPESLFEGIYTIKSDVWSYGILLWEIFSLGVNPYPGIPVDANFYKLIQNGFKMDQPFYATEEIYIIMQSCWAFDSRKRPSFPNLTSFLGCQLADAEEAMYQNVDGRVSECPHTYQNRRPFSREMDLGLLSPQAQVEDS
Description: as §1, §2, §3, §4

JAK2 = target: T3, JAK2 (Homo sapiens, UniProt O60674); experiment: LanthaScreen TR-FRET binding test, JAK2; conditions: recombinant JAK2 15 nM, kinase tracer 236 150 nM, 25° C., 1 hour; read-out: Inhibition (IC50) of JAK2 enzyme
T3 construct: purchased Life Technologies PV4210
Description: as §1
The reaction mixture (15 μL total volume) contains the following compounds: 15 nM JAK2 or JAK3, 150 nM kinase tracer 236 (Life Technologies, #PV5592) for JAK2 or 3 nM for JAK3 and 6 nM LanthaScreen® anti-GST antibody coupled to a europium chelate (Life Technologies, #PV5594) for both enzymes.
as §3, §4

MOLM-13 cell line = experiment: Antiproliferative activity (ATPLite cell viability), MOLM-13; assay type: cell-based; conditions: Homo sapiens, MOLM-13 (acute myeloid leukemia, FLT3-ITD), 72 h incubation, read-out: Cytotoxicity (EC50) on MOLM13 cell line
Description: The characteristics of the cell lines used are as follows (Table 2):
MV4-11 and MOLM-13 cell lines are cultured in the culture medium specified in Table 2 above and according to the supplier's recommendations. The tests are carried out in 96-well plates. The cells are divided in two at D0. At D1, they are seeded and treated with the compounds at various concentrations and incubated for 72 h at 37° C. and 5% CO2. The dilution of the compounds from stock solutions in DMSO (Sigma, #D8418) was made semi-logarithmically for a final concentration in the culture medium of 0.1%. At day 4, cell viability is evaluated by assaying the ATP released by the living cells using the ATPLite® kit (Perkin Elmer, #6016947). The EC50 values (concentration of the compound necessary to obtain 50% of the maximum effect) are calculated using curve-fitting software.

T3 sequence (O60674 whole entry): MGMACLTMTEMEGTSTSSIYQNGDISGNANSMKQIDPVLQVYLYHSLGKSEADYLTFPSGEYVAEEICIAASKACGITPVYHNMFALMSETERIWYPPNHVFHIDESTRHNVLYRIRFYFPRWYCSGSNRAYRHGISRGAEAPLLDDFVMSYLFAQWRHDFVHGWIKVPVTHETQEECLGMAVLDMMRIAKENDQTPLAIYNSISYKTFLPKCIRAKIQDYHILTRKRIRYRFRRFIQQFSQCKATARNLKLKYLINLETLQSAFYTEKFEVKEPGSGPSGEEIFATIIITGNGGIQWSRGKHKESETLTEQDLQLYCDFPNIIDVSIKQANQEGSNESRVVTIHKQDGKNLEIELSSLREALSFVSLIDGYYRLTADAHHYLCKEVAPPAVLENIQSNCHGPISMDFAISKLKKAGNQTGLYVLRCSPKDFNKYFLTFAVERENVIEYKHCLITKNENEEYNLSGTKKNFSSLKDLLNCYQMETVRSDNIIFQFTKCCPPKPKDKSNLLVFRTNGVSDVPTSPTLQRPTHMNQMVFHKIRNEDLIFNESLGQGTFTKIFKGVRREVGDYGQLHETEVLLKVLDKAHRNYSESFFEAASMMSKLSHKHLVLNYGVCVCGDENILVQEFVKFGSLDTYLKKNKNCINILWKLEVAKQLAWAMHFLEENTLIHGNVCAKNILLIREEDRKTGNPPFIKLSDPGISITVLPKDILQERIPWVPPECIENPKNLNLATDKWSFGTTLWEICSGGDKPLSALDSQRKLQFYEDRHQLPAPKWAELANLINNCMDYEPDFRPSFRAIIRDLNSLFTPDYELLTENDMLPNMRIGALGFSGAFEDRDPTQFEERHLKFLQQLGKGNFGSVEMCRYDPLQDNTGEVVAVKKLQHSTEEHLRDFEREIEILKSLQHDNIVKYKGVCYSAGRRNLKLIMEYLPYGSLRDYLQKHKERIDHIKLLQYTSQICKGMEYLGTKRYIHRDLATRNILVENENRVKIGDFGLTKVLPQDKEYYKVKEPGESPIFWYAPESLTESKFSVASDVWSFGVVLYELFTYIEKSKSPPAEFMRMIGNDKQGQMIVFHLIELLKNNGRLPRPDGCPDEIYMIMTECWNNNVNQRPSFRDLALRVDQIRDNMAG

SMILES | pIC50 (FLT3) | pIC50 (FLT3-ITD) | pIC50 (JAK2) | pEC50 (MOLM-13 cell line)
c1cc(N2CC3CNCC3C2)c2cc1Nc1ncc3c(n1)-c1cc(ccc1CC3)OCCOCCO2 (stereo not drawn) [Compound 29] | 8.43 | 9.10 | 7.94 | 7.82
c1cc(N2CCC(N3CCOCC3)C2)c2cc1Nc1ncc3c(n1)-c1cc(ccc1CC3)OCCOCCO2 (stereo not drawn) [Compound 7] | 7.74 | 8.19 | 7.40 | 7.47
c1cc(N2CC3CCC(C2)N3)c2cc1Nc1ncc3c(n1)-c1cc(ccc1CC3)OCCOCCO2 [Compound 42] | 8.49 | 8.96 | 8.17 | 8.15
c1cc(N2C[C@H]3C[C@@H]2CN3)c2cc1Nc1ncc3c(n1)-c1cc(ccc1CC3)OCCOCCO2 [Compound 44] | 8.28 | 8.82 | 7.47 | 8.06
CN(C)C1CCN(c2ccc3cc2OCCOCCOc2ccc4c(c2)-c2nc(ncc2CC4)N3)C1 (stereo not drawn) [Compound 30] | 8.49 | 9.00 | 8.00 | 7.82

Further lines, with some results ahead:

pIC50 (FLT3) | pIC50 (FLT3-ITD) | pIC50 (JAK2) | SMILES | pEC50 (MOLM-13 cell line)
8.15 | 8.70 | 7.47 | c1cc(OCCN2CCCC2)c2cc1Nc1ncc3c(n1)-c1cc(ccc1CC3)OCCOCCO2 [Compound 14] | 8.35
8.72 | 9.29 | 8.14 | CN1CCN(c2ccc3cc2OCCOCCOc2ccc4c(c2)-c2nc(ncc2CC4)N3)CC1(C)C [Compound 40] | 7.70
8.36 | 8.89 | 7.89 | c1cc(N2CCNCC2)c2cc1Nc1ncc3c(n1)-c1cc(ccc1CC3)OCCOCCO2 [Compound 5] | 8.74
8.22 | 8.89 | 8.11 | c1cc(N2CCC(N3CCCCC3)CC2)c2cc1Nc1ncc3c(n1)-c1cc(ccc1CC3)OCCOCCO2 [Compound 10] | 8.22
8.44 | 8.62 | 7.70 | OC1CCN(c2ccc3cc2OCCOCCOc2ccc4c(c2)-c2nc(ncc2CC4)N3)CC1 [Compound 19] | 7.87
8.35 | 8.77 | 6.89 | CN1CC=C(c2ccc3cc2OCCOCCOc2ccc4c(c2)-c2nc(ncc2CC4)N3)CC1 [Compound 23] | 8.18
8.60 | 9.85 | 7.76 | CN1CCN(c2ccc3cc2OCCOCCOc2ccc4c(c2)-c2nc(ncc2CC4)N3)CC1 [Compound 3] | 8.25
